Data as given in patent publication US7659289B2, “Hydroxyethylene-based β-secretase inhibitors and use thereof” (CoMentis, Inc., priority 2004, dated 2010).
pIC50, pKi: −log10 of the molar value.

Assays:
Aβ production = assay: Cellular Aβ IC50 determination (Aβ40 sandwich ELISA); assay type: cell-based; settings: Cricetulus griseus; Aβ40, Chinese hamster ovary cells over-expressing human APP695 with London and Swedish mutations, 24 h incubation
Protocol: The potency of compounds against memapsin 2 activity was determined in a cellular assay of Aβ production. […] Chinese hamster ovary cells that over-express human APP695 with the London and Swedish mutations were seeded in multi-well plates at 10% confluency. Compounds were dissolved in DMSO to concentrations near 1 mM, and diluted into culture media to a final concentration near 4 μM (final 0.4% DMSO). Compounds were diluted serially and applied to cells in multi-well plates 48 h after seeding. Incubation was continued in 5% CO2 at 37 degrees C. for 24 h. Aliquots were removed and assayed for Aβ40 content using a sandwich ELISA (BioSource International). Amount of Aβ40 over the range of concentration of compounds, relative to control incubations, were fit to a 4-parameter IC50 model.

memapsin 2 = memapsin 2 (Homo sapiens, UniProt P56817); assay: Inhibition of memapsin 2 beta-secretase activity toward fluorogenic substrate FS-2; assay type: biochemical; settings: pH 4, 37° C., 20 minutes pre-incubation, fluorogenic substrate FS-2, tight-binding model; read-out: M2 Ki
memapsin 2, sequence (P56817 46-501): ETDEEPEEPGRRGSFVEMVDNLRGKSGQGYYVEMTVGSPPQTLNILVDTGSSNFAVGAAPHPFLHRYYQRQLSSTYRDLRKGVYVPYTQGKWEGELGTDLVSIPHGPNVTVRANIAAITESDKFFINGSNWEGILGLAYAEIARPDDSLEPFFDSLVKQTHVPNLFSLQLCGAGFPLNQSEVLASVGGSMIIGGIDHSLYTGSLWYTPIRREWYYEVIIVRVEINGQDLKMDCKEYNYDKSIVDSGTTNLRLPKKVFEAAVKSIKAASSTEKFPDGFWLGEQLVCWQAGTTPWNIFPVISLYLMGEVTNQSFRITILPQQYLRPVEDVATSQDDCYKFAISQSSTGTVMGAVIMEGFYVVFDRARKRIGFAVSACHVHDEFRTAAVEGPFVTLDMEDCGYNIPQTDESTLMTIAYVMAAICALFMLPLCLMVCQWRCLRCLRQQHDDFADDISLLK
Protocol: Potency of compounds were determined by measurement of their inhibition of memapsin 2 activity toward a fluorescent substrate. […] Briefly, assays were performed at pH 4, 37° C., by pre-incubation of memapsin 2 enzyme with compound for 20 minutes. Activity measure was initiated by addition of a fluorogenic substrate FS-2 (Bachem Americas, Torrance, Calif.). Fluorescent signal increase over time was measured as a rate of hydrolysis of the peptide substrate.

Cathepsin D = Cathepsin D (Homo sapiens, UniProt P07339); assay: Inhibition of cathepsin D activity (MALDI-TOF, substrate peptide […]); assay type: biochemical; settings: pH 4.1, 37 degrees C., read-out: Cath D Ki
Cathepsin D, sequence (P07339 65-412, species assumed): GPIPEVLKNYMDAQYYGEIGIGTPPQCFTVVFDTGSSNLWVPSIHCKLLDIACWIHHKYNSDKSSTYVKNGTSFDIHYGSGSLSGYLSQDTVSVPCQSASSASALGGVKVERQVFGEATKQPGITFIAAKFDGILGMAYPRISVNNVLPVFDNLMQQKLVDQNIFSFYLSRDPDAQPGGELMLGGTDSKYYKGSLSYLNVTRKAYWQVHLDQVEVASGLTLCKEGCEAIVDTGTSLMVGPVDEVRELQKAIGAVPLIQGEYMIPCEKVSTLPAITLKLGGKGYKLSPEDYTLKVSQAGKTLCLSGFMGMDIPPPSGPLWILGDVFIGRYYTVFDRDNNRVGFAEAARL
Protocol: After equilibration at 37 degrees C., the reactions were initiated by the addition of an aliquot of memapsin 2. Aliquots were removed at time intervals, and combined with an equal volume of MALDI-TOF matrix (α-hydroxycinnamic acid in acetone, 20 mg/ml) and immediately spotted in duplicate onto a stainless-steel MALDI sample plate. MALDI-TOF mass spectrometry was performed on a PE Biosystems Voyager DE instrument at the Molecular Biology Resource Center on campus. The instrument was operated at 25,000 accelerating volts in positive mode with a 150 ns delay. Ions with a mass-to-charge ratio (m/z) were detected in the range of 650-2000 atomic mass units. Data was analyzed by the Voyager Data Explorer module to obtain ion intensity data for mass species of substrates and corresponding products in a given mixture. Relative product formation was calculated as the ratio of signal intensity of the product to the sum of signal intensities of both product and the corresponding substrate. Relative product formed per unit time was obtained from non-linear regression analysis of the data representing the initial 15% formation of product using the model: 1−e^−kT,
where k is the relative hydrolytic rate constant and T is time in seconds. Initial rates were expressed relative to uninhibited controls and fit to a tight-binding model of competitive inhibition as above.

Question: What does the source list for CCC(Cn1nc(C)cc1C)C(=O)N[C@@H](CNC(=O)OCCF)C(=O)N[C@@H](CC(C)C)[C@@H](O)C[C@@H](C)C(=O)N[C@H](C(=O)NCC(C)C)C(C)C (stereo partly drawn) [2-fluoroethyl (2S)-2-(2-((3,5-dimethyl-1H-pyrazol-1-yl)methyl)butanamido)-3-((4S,5S,7R)-5-hydroxy-8-((S)-1-(isobutylamino)-3-methyl-1-oxobutan-2-ylamino)-2,7-dimethyl-8-oxooctan-4-ylamino)-3-oxopropylcarbamate]?
Answer: pIC50 (Aβ production): 4.00 to 5.22; pKi (memapsin 2): > 7.00; pKi (Cathepsin D): > 7.00

Question: With COCCOC(=O)NC[C@H](NC(=O)[C@@H](C)Cc1nc(C)cs1)C(=O)N[C@@H](CC(C)C)[C@@H](O)C[C@@H](C)C(=O)N[C@H](C(=O)NCC(C)C)C(C)C [2-methoxyethyl (S)-3-((4S,5S,7R)-5-hydroxy-8-((S)-1-(isobutylamino)-3-methyl-1-oxobutan-2-ylamino)-2,7-dimethyl-8-oxooctan-4-ylamino)-2-((S)-2-methyl-3-(4-methylthiazol-2-yl)propanamido)-3-oxopropylcarbamate] as the compound, how does the pIC50 (Aβ production) read?
Answer: > 5.22

Question: And the pKi (memapsin 2)?
Answer: > 7.00

Question: What about the pKi (Cathepsin D) of the same compound?
Answer: > 7.00

Question: How did the pIC50 (Aβ production) turn out when Cc1csc(C[C@H](C)C(=O)N[C@@H](CNS(C)(=O)=O)C(=O)N[C@@H](CC(C)C)[C@@H](O)C[C@@H](C)C(=O)N[C@H](C(=O)NCC(C)C)C(C)C)n1 [(2R,4S,5S)-4-hdroxy-N-((S)-1-(isobutylamino)-3-methyl-1-oxobutan-2-yl)-2,7-dimethyl-5-((S)-2-((S)-2-methyl-3-(4-methylthiazol-2-yl)propanamido)-3-(methylsulfonamido)propanamido)octanamide] was run?
Answer: > 5.22

Question: And the pKi (memapsin 2)?
Answer: > 7.00

Question: What about the pKi (Cathepsin D) of the same compound?
Answer: > 7.00

Question: Cc1csc(C[C@H](C)C(=O)N[C@@H](CN(C)S(C)(=O)=O)C(=O)N[C@@H](CC(C)C)[C@@H](O)C[C@@H](C)C(=O)N[C@H](C(=O)NCC(C)C)C(C)C)n1 [(2R,4S,5S)-4-hydroxy-N-((S)-1-(isobutylamino)-3-methyl-1-oxobutan-2-yl)-2,7-dimethyl-5-((S)-2-((S)-2-methyl-3-(4-methylthiazol-2-yl)propanamido)-3-(N-methylmethylsulfonamido)propanamido)octanamide] was tested. Which pIC50 (Aβ production) did it give?
Answer: 4.00 to 5.22

Question: And the pKi (memapsin 2)?
Answer: 6.22 to 7.00

Question: With CC[C@@H](Cc1nc(C)cs1)C(=O)N[C@@H](CN(C)OC)C(=O)N[C@@H](CC(C)C)[C@@H](O)C[C@@H](C)C(=O)N[C@H](C(=O)NCC(C)C)C(C)C [(2R,4S,5S)-4-hydroxy-N-((S)-1-(isobutylamino)-3-methyl-1-oxobutan-2-yl)-5-((S)-3-(methoxy(methyl)amino)-2-((S)-2-((4-methylthiazol-2-yl)methyl)butanamido)propanamido)-2,7-dimethyloctanamide] as the compound, how does the pIC50 (Aβ production) read?
Answer: < 4.00

Question: And the pKi (memapsin 2)?
Answer: 6.22 to 7.00

Question: What does the source list for Cc1nc(COC(=O)N[C@@H](CC(=O)OCc2ccccc2)C(=O)N[C@@H](CC(C)C)[C@@H](O)C[C@@H](C)C(=O)N[C@H](C(=O)NCC(C)C)C(C)C)c(C)o1 [(S)-benzyl 3-(((2,5-dimethyloxazol-4-yl)methoxy)carbonylamino)-4-((4S,5S,7R)-5-hydroxy-8-((S)-1-(isobutylamino)-3-methyl-1-oxobutan-2-ylamino)2,7-dimethyl-8-oxooctan-4-ylamino)-4-oxobutanoate]?
Answer: pKi (memapsin 2): > 7.00; pKi (Cathepsin D): > 7.00

Question: What does the source list for CC[C@H](Cn1nc(C)cc1C)C(=O)N[C@@H](CNC(=O)OC(C)(C)C)C(=O)N[C@@H](CC(C)C)[C@@H](O)C[C@@H](C)C(=O)N[C@H](C(=O)NCC(F)(F)F)C(C)C [tert-butyl (S)-2-((R)-2-((3,5-dimethyl-1H-pyrazol-1-yl)methyl)butanamido)-3-((4S,5S,7R)-5-hydroxy-2,7-dimethyl-8-((S)-3-methyl-1-oxo-1-(2,2,2-trifluoroethylamino)butan-2-ylamino)-8-oxooctan-4-ylamino)-3-oxopropylcarbamate]?
Answer: pKi (memapsin 2): < 6.22; pKi (Cathepsin D): 6.22 to 7.00

Question: What does the source list for CC[C@@H](Cn1nc(C)cc1C)C(=O)N[C@@H](CNC(=O)OC(C)(C)C)C(=O)N[C@@H](CC(C)C)[C@@H](O)C[C@@H](C)C(=O)N[C@H](C(=O)NCc1ccccn1)C(C)C [tert-butyl (S)-2-((S)-2-((3,5-dimethyl-1H-pyrazol-1-yl)methyl)butanamido)-3-((4S,5S,7R)-5-hydroxy-2,7-dimethyl-8-((S)-3-methyl-1-oxo-1-(pyridin-2-ylmethylamino)butan-2-ylamino)-8-oxooctan-4-ylamino)-3-oxopropylcarbamate]?
Answer: pIC50 (Aβ production): 4.00 to 5.22; pKi (memapsin 2): > 7.00

Question: With CC[C@@H](Cn1nc(C)cc1C)C(=O)N[C@@H](CNC(=O)OC(C)(C)C)C(=O)N[C@@H](CC(C)C)[C@@H](O)C[C@@H](C)C(=O)N[C@H](C(=O)NCc1ccncc1)C(C)C [tert-butyl (S)-2-((S)-2-((3,5-dimethyl-1H-pyrazol-1-yl)methyl)butanamido)-3-((4S,5S,7R)-5-hydroxy-2,7-dimethyl-8-((S)-3-methyl-1-oxo-1-(pyridin-4-ylmethylamino)butan-2-ylamino)-8-oxooctan-4-ylamino)-3-oxopropylcarbamate] as the compound, how does the pIC50 (Aβ production) read?
Answer: > 5.22

Question: What about the pKi (memapsin 2) of the same compound?
Answer: > 7.00

Question: With COCO[C@@H](Cn1nc(C)cc1C)C(=O)N[C@@H](CNC(=O)OC(C)(C)C)C(=O)N[C@@H](CC(C)C)[C@@H](O)C[C@@H](C)C(=O)N[C@H](C(=O)NCC(C)C)C(C)C [tert-butyl (S)-2-((S)-3-(3,5-dimethyl-1H-pyrazol-1-yl)-2-(methoxymethoxy)propanamido)-3-((4S,5S,7R)-5-hydroxy-8-((S)-1-(isobutylamino)-3-methyl-1-oxobutan-2-ylamino)-2,7-dimethyl-8-oxooctan-4-ylamino)-3-oxopropylcarbamate] as the compound, how does the pKi (memapsin 2) read?
Answer: 6.22 to 7.00

Question: What about the pKi (Cathepsin D) of the same compound?
Answer: > 7.00

Question: Cc1csc(C[C@H](C)C(=O)N[C@@H](CNC(=O)OC(C)(C)C)C(=O)N[C@@H](Cc2cc(F)cc(F)c2)[C@@H](O)C[C@@H](C)C(=O)N[C@H](C(=O)NCC(C)C)C(C)C)n1 [tert-butyl (S)-3-((2S,3S,5R)-1-(3,5-difluorophenyl)-3-hydroxy-6-((S)-1-(isobutylamino)-3-methyl-1-oxobutan-2-ylamino)-5-methyl-6-oxohexan-2-ylamino)-2-((S)-2-methyl-3-(4-methylthiazol-2-yl)propanamido)-3-oxopropylcarbamate] was tested. Which pIC50 (Aβ production) did it give?
Answer: 4.00 to 5.22

Question: And the pKi (memapsin 2)?
Answer: > 7.00

Question: How did the pKi (memapsin 2) turn out when COc1ccc(C[C@H](NC(=O)[C@H](CNC(=O)OC(C)(C)C)NC(=O)[C@@H](C)Cc2nc(C)cs2)[C@@H](O)C[C@@H](C)C(=O)N[C@H](C(=O)NCC(C)C)C(C)C)cc1 [tert-butyl (S)-3-((2S,3S,5R)-3-hydroxy-6-((S)-1-(isobutylamino)-3-methyl-1-oxobutan-2-ylamino)-1-(4-methoxyphenyl)-5-methyl-6-oxohexan-2-ylamino)-2-((S)-2-methyl-3-(4-methylthiazol-2-yl)propanamido)-3-oxopropylcarbamate] was run?
Answer: < 6.22

Question: And the pKi (Cathepsin D)?
Answer: > 7.00

Question: How did the pKi (memapsin 2) turn out when Cc1csc(C[C@H](C)C(=O)N[C@@H](CNC(=O)OC(C)(C)C)C(=O)N[C@@H](CC(C)C)[C@@H](O)C[C@@H](C)C(=O)N[C@H](CS(=O)(=O)CC(C)C)C(C)C)n1 [tert-butyl (S)-3-((4S,5S,7R)-5-hydroxy-8-((S)-1-(isobutylsulfonyl)-3-methylbutan-2-ylamino)-2,7-dimethyl-8-oxooctan-4-ylamino)-2-((S)-2-methyl-3-(4-methylthiazol-2-yl)propanamido)-3-oxopropylcarbamate] was run?
Answer: < 6.22

Question: What about the pKi (Cathepsin D) of the same compound?
Answer: < 6.22
